According to a melting point compilation (Tetko et al.; mined from patent text by program, amines drawn as free bases though some values may be those of a salt):

SMILES	melting point [°C]
Cc1nc2cccc(Cl)c2c(=O)o1	149
CC[C@H](C)C(OCc1ccccc1F)[C@H]1[C@H]([N+](=O)[O-])[C@H](c2ccccc2)N[C@@H]1C(=O)NCCC(=O)O (stereo not given in full)	136 to 138
Cc1c(Cc2ccccc2)c2c(c(C)c1NC(=O)CC(C)(C)C)CC(C)(C)O2	129 to 130
Cc1cn(C(C)(C(=O)N(C)C)c2ccccc2)nc1-c1ccccc1Cl (stereo not given)	96 to 99
COCCCCc1cccc(C2(c3ccc(OC(F)F)cc3)N=C(N)N(C)C2=O)c1 (stereo not given)	36 to 39
COC(=O)CCc1cc2c(Cl)c(Cl)ccc2n1S(=O)(=O)c1ccccc1	142
O=C(NC1CC1)c1nc(-c2ccccc2)c(-c2ccc(=O)n(Cc3ccccc3)n2)s1	151 to 152
CN1CC(C#CC2CC2)(C(F)(F)F)c2cc(Cl)ccc2NC1=O (stereo not given)	177 to 178
N=C(Nc1ccc(Cl)cc1)Nc1ncccc1OCc1ccc(F)cc1F	182 to 184
COc1ccc(CNc2nc[nH]n2)cc1OC1CCCC1	203 to 204
CS(=O)c1ncc2ccc(=O)n(C3CCCC3)c2n1 (stereo not given)	170 to 173
CC(=O)NC(=O)NCC(=O)N1CC1C#N (stereo not given)	118 to 122
COc1ccc(CN(c2ccc(F)c(Cl)c2)c2ncnc3cc(OCCCN4CCOCC4)c([N+](=O)[O-])cc23)cc1OC	129 to 132
O=S(=O)(c1ccccc1)n1ccc2c(Cl)nc(-c3ccccc3)nc21	259 to 260
Cc1nc2c(N)cc(C(=O)N(C)C)cc2n1C	230 to 234
COc1ccc2[nH]c(S(=O)Cc3cc(N(C)C)c(F)cn3)nc2c1 (stereo not given)	99 to 102
Cc1nccn1-c1ccc(COc2cc(F)cc(C3(C(N)=S)CCOCC3)c2)cc1	167 to 170
C=C(Cc1ccc(OC)cc1)C(=O)O	88 to 91
CC(Br)C(=O)NC(C)(C)c1ccccc1 (stereo not given)	102 to 103
COc1cc(NC(=S)NC(=O)c2ccccc2)cc(-c2ccccc2)c1	149
NC(=O)[C@@H](CCC(F)(F)F)N(Cc1ccc(-c2ncon2)cc1F)S(=O)(=O)c1ccc(Cl)cc1	66 to 68
O=C(ON1C(=O)CCC1=O)c1cccnc1	129 to 131
CCn1cc(C(=O)O)c(=O)c2cc(F)c(-c3csc(CN)n3)c(NC)c21	194 to 195
CC(O)C(O)c1nc2c(C(F)(F)F)cccc2c(O)c1C(=O)Nc1nccs1 (stereo not given)	275
CCC1(CC)C(=O)N(C(C)(C)C)CC(C)(C)N1OC(=O)Nc1ccccc1	160 to 163

SMILES	melting point [°C]
Nc1ccc(NC(=O)NC(=O)c2c(F)cccc2F)cc1	240
COc1ccc(OCc2ccccn2)cc1/C=C/c1cc(/C=C/c2ccc3[nH]ccc3c2)n[nH]1	116 to 122
Cc1c(F)c(N2CCC(n3ccnn3)CC2)c(F)c2c1c(=O)c(C(=O)O)cn2C1CC1	261 to 263
Cn1cncc1C(O)(c1ccc(Cl)cc1)c1ccc2c(c1)C(c1cccc(Cl)c1)SCc1nnnn1-2 (stereo not given)	217
O=C(Nc1nccs1)c1cccc(-c2ccc3c(c2)C(Nc2ccc(Cl)cc2Cl)CO3)c1 (stereo not given)	221 to 222
Cc1cc2c(nc1N)C(=O)N(C(C)C1CC1)C2=O (stereo not given)	219 to 220
CC(C)CN1CCCC[C@H]1CNc1nc(Oc2cccc3[nH]c(=O)c(N)nc23)cc(-c2ccc(C(F)(F)F)cc2)n1	228
COc1cc(Nc2c(C#N)cnc3c(/C=C/CCN4CCOCC4)cccc23)c(Cl)cc1Cl	176 to 179
CC(C)(CC(C)(c1ccccc1)c1ccc(O)c(C(=O)O)c1)c1ccccc1 (stereo not given)	153 to 155
C(=Cc1ccccc1)C=NC1CCOc2ccccc21 (stereo not given)	106 to 107
O=P(Cc1ccccc1O)(c1ccccc1)c1ccccc1	179
Nc1cccc(OCc2nc3ccccc3s2)c1	117 to 120
COc1ccccc1NC(=NC#N)NC(NC(=O)c1ccc(Cl)cc1)C(C)(Cl)Cl (stereo not given)	185 to 186
COC(=O)CCC(Oc1cccc2c1cc(C)n2Cc1ccccc1)C(=O)OC (stereo not given)	139 to 141
Cc1ccc(N2C(=O)C(O)=C(C(=O)c3ccc(C(F)(F)F)nc3)C2c2ccc(OC(F)(F)F)cc2)nn1 (stereo not given)	172
Cc1ccccc1C1CCN(C(=O)CCC(=O)c2ccc3c(c2)CCN(C(=O)C(F)(F)F)CC3)CC1	130 to 131
Cc1ccccc1CC(=NC#N)NC(NC(=O)Cc1ccc2c(c1)OCO2)C(C)(C)C (stereo not given)	167 to 169
CC1c2ccccc2N(CCN2CC=C(c3c[nH]c4cc(F)ccc34)CC2)S(=O)(=O)N1C (stereo not given)	105 to 108
CCCCOCCOc1ccc(-c2ccc(-n3cccn3)c(C=C(C)C(=O)O)c2)cc1	132 to 134
NC(=O)CCCON1CCNC1=Nc1c(Cl)cccc1Cl	140 to 141
CONC(=O)COc1cc2c(cc1C#Cc1ccccc1)NC(=O)CC(c1cccc(C#N)c1)=N2	> 250
CC(=O)Nc1ccc(OC(C)=O)c(C(=O)O)c1	196 to 198
C#Cc1cnn(-c2ccnc3cc(Cl)ccc23)c1	174 to 175
O=C(Oc1ccc([N+](=O)[O-])cc1)[C@@H]1CCCN1C(=O)OCc1ccccc1	94 to 96
CCOC(=O)c1ccc(CCc2coc(N)c2C#N)cc1	195 to 197

SMILES	melting point [°C]
CCN(CC)CCOCCC1CCN(C(=O)N2c3cc(Cl)ccc3C(=O)Nc3cccnc32)CC1	145 to 146
CCOC(=O)/C(=C\Nc1cccc(OC)c1)c1ccc(OC)cc1	60 to 61
Cc1oc(-c2ccco2)nc1COc1ccc(COc2nn(-c3ccccc3)cc2/C=C/C(=O)O)cc1	144 to 145
CCCC1CC(=O)C(C(=O)NS(=O)(=O)c2ccc(C)cc2)C(=O)C1 (stereo not given)	132 to 134
COc1c(O)c(OC)c2c(=O)cc(-c3ccc(O)cc3)oc2c1OC	266 to 268
BrC12CCCC(C1)C1CCC2C1 (stereo not given)	57.5 to 58.5
COc1cc(NCCCCCCN2CCN(c3ccc(Cl)c(Cl)c3)CC2)c2nccc(C)c2c1	92 to 94
COc1ccc(CCBr)cc1OC	72 to 73
CCOC(=O)[C@H]1C=C[C@H](c2ccccc2)n2c(=O)n(CCCl)c(=O)n21 (relative stereo)	117 to 119
C=Cc1cn([C@@H]2O[C@H](C)[C@@H](OC(C)=O)[C@H]2OC(C)=O)c(=O)nc1N	198 to 199
O=C(NCCc1ccc(I)cc1)C(F)(F)F	136 to 138
Cc1cc2c(cc1-c1csc(C=O)c1)C(C)(C)CCC2(C)C	144 to 146
O=C(O)C(=O)c1c(F)c(F)c(OCCOc2ccc3ccccc3c2)c(F)c1F	146 to 148
CC(C#Cc1ccc(-c2cccnc2S)o1)N(O)C(N)=O (stereo not given)	145
O=C(O)c1cc(S)c(Cl)cc1Cl	254 to 255
N#CCCc1cccc([N+](=O)[O-])c1	86 to 88
Nc1cccc(C#CC=Cc2cccc(N)c2)c1	105 to 106
Cc1nn(C)c2c(O)nc(C(C)C)nc12	264 to 266
Cc1nc2nc(NCCN3CCC(Nc4nc5ccccc5n4Cc4ccc(F)cc4)CC3)ccc2[nH]1	202
CCOCc1nc2c(N)nc3ccccc3c2n1CC1(O)CCC2(CC1)OCCO2	207 to 209
Cn1c2ccc(Cl)cc2c2c(CC(=O)O)nn(-c3ccccc3)c(=O)c21	206 to 208
c1ccc(OCCSCc2nnc(-c3ccc(OCCN4CCSCC4)cc3)o2)cc1	60
CN(C(=O)c1ccccc1)[Si](C)(C)N(C)C(=O)c1ccccc1	54 to 56
CC(C)NC1=NS(=O)(=O)c2ccc(F)cc2N1	266 to 269
O=[N+]([O-])c1ccccc1OCCN1CCN(c2cc(Cl)nnc2Cl)CC1	125 to 126

SMILES	melting point [°C]
COC(=O)CCCC(N)=O	80
CC(C)SC(=S)N1Cc2[nH]c3ccccc3c2CC1C(=O)O (stereo not given)	188 to 190
O=C1O[C@@H](CO)CN1c1ccc(Br)cn1	123 to 124
N#Cc1ncn2c1N(C(=O)CN1CCC(c3ccccc3)CC1)CC=C2c1cccc(C(F)(F)F)c1	174 to 175
CCc1nsc(C(=O)O)c1C(=O)OC	43 to 45
COc1cc2[nH]c(=O)n(CC(C)S)c(=O)c2cc1OC (stereo not given)	262 to 264
COc1cc(OC)c(-c2cccs2)cc1/C=C/C(=O)c1ccc(S(=O)(=O)Nc2ccccn2)cc1	141 to 143
O=[N+]([O-])c1c(NCCO)cc(C(O)CSCC(O)c2cc(NCCO)c([N+](=O)[O-])c(NCCO)c2)cc1NCCO (stereo not given)	157
O=C1c2cc(Cl)ccc2COc2ccccc21	82 to 83
O=[N+]([O-])C=Cc1ccc(OCc2ccccc2)c(OCc2ccccc2)c1	118 to 119
O=C(Nc1ccc2ccc(-c3ccc(F)cc3)nc2n1)c1ccc(C(F)(F)F)cc1	198
CCCC1CCc2c3c(c(F)c(F)c2O1)OC(C)C3 (stereo not given)	87
O=C(O)C(=O)c1ccoc1	94.2
CC(=O)Nc1ccc2[nH]cc(CC#N)c2c1	172 to 175
CCn1nc2c(N)nc3ccccc3c2c1CO	255 to 256
Nc1nc(N)nc(-c2ccc(NS(=O)(=O)c3ccccc3)cc2)n1	197 to 199
Oc1cc(O)nc(C(F)(F)F)n1	255 to 256
Cc1ccc(-n2c(-c3ccccc3)c(Br)c(Br)c2-c2ccccc2)cc1	227 to 228
O=C(Nc1cc(-c2c(-c3ccc(Cl)cc3)nc3cccnn23)ccn1)c1ccccc1	218 to 219
Cc1c(NC(=O)C(CSC(=O)c2cccnc2)Cc2ccccc2)cccc1C(=O)O (stereo not given)	80 to 86
O=CN1CCCN(Cc2ccc(Cl)cc2)C1=C[N+](=O)[O-]	131 to 133
O=C(O)c1cc2ccsc2nc1C(=O)O	272 to 275
CCOC(=O)c1cc(-n2c(=O)[nH]c(C)c(C)c2=O)ccc1Cl	202 to 204
Cc1cccc(N2CCN(CCCCNC(=O)c3cc4ccccc4o3)CC2)c1	119 to 120
NNC(=O)Cc1cccc(Cl)n1	220 to 225
